Measured values published in ChEMBL document CHEMBL5260799, “Pterocarpan scaffold: A natural lead molecule with diverse pharmacological properties” (Eur J Med Chem, 2017).
pIC50: −log10 of the molar value. ≈ marks a conversion by molar mass, not a printed value.

Experiments:
[1] = tested on: Plasmodium falciparum; experiment: Antiplasmodial activity against Plasmodium falciparum K1 assessed as reduction in parasite growth by fluorescence based assay; format: functional, organism-based
[2] = tested on: Mycobacterium tuberculosis; experiment: Antimycobacterial activity against Mycobacterium tuberculosis H37Rv assessed as inhibition of bacterial growth by Microplate alamar blue assay; format: functional, organism-based
[3] = tested on: KB; experiment: Cytotoxicity against human KB cells assessed as reduction in cell viability by colorimetric assay; format: functional, cell-based
[4] = tested on: Breast carcinoma cell; experiment: Cytotoxicity against human Breast carcinoma cell assessed as reduction in cell viability by colorimetric assay; format: functional, cell-based
[5] = tested on: NCI-H187; experiment: Cytotoxicity against human NCI-H187 cells assessed as reduction in cell viability by colorimetric assay; format: functional, cell-based
[6] = tested on: Enterococcus; experiment: Antibacterial activity against vancomycin-resistant Enterococcus GCMT1 assessed as reduction in bacterial growth incubated for 24 hrs by microbroth dilution method; format: functional
[7] = tested on: Enterococcus; experiment: Antibacterial activity against vancomycin-resistant Enterococcus GCMT3 assessed as reduction in bacterial growth incubated for 24 hrs by microbroth dilution method; format: functional
[8] = tested on: Streptococcus agalactiae; experiment: Antibacterial activity against Streptococcus agalactiae ATCC 12386 assessed as reduction in bacterial growth by microbroth dilution method; format: functional
[9] = tested on: Plasmodium falciparum; experiment: Antiplasmodial activity against Plasmodium falciparum K1 assessed as reduction in parasitic growth by fluorescence based analysis; format: functional, organism-based
[10] = tested on: Plasmodium falciparum; experiment: Antiplasmodial activity against Plasmodium falciparum W2 assessed as reduction in plasmodial growth after 48 hrs by fluorescence based analysis; format: functional, organism-based; details: W2, 48 h
[11] = molecular target: Maltase-glucoamylase (Homo sapiens, UniProt O43451); experiment: Inhibition of human Alpha-glucosidase
[12] = molecular target: Sterol O-acyltransferase 2 (Homo sapiens) (UniProt O75908); experiment: Inhibition of human ACAT2 at 100 uM
[13] = molecular target: Sterol O-acyltransferase 1 (Homo sapiens) (UniProt P35610); experiment: Inhibition of human ACAT1 at 100 uM
[14] = tested on: Mycobacterium tuberculosis; experiment: Antimycobacterial activity against Mycobacterium tuberculosis H37Ra assessed as reduction in bacterial growth by MABA method; format: functional
[15] = tested on: Staphylococcus aureus; experiment: Antibacterial activity against Staphylococcus aureus ATCC 25923 assessed as bacterial growth inhibition by broth dilution method; format: functional, organism-based
[16] = tested on: Staphylococcus aureus; experiment: Antibacterial activity against methicillin-resistant Staphylococcus aureus ATCC 25923 assessed as bacterial growth inhibition by broth dilution method; format: functional, organism-based
[17] = tested on: Candida albicans; experiment: Antifungal activity against Candida albicans ATCC 10231 assessed as reduction in fungal growth by NCCLS method; format: functional
[18] = tested on: Candida albicans; experiment: Antifungal activity against multidrug-resistant Candida albicans ATCC 10231 assessed as reduction in fungal growth by NCCLS method; format: functional
[19] = tested on: Candida albicans; experiment: Antifungal activity against Candida albicans SC5314 assessed as reduction in fungal growth incubated for 24 hrs by serial dilution method; format: functional
[20] = tested on: KB; experiment: Cytotoxicity against human KB cells assessed as reduction in cell viability by resazurin microplate assay; format: functional, cell-based
[21] = tested on: MCF7; experiment: Cytotoxicity against human MCF7 cells assessed as reduction in cell viability by resazurin microplate assay; format: functional, cell-based
[22] = tested on: NCI-H187; experiment: Cytotoxicity against human NCI-H187 cells assessed as reduction in cell viability by resazurin microplate assay; format: functional, cell-based
[23] = tested on: Staphylococcus aureus; experiment: Antibacterial activity against methicillin-resistant Staphylococcus aureus ATCC 4330 assessed as bacterial growth inhibition; format: functional

Sterol O-acyltransferase 1 (Homo sapiens), sequence (P35610 whole entry, looked up): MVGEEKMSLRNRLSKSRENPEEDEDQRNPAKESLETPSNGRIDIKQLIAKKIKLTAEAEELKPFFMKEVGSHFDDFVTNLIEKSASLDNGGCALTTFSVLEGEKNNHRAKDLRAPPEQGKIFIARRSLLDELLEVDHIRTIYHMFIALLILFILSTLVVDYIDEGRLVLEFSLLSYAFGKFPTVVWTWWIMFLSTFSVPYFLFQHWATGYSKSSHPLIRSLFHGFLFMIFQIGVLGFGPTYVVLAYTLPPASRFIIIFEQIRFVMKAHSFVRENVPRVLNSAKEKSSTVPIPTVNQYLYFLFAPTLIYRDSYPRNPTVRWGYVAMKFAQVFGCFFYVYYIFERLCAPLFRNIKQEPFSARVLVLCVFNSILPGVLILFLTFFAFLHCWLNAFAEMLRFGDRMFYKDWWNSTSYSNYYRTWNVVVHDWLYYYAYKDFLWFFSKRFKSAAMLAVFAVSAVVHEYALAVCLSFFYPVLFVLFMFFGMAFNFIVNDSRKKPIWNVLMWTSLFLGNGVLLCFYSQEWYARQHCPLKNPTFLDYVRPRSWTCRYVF
Maltase-glucoamylase, sequence (O43451 whole entry): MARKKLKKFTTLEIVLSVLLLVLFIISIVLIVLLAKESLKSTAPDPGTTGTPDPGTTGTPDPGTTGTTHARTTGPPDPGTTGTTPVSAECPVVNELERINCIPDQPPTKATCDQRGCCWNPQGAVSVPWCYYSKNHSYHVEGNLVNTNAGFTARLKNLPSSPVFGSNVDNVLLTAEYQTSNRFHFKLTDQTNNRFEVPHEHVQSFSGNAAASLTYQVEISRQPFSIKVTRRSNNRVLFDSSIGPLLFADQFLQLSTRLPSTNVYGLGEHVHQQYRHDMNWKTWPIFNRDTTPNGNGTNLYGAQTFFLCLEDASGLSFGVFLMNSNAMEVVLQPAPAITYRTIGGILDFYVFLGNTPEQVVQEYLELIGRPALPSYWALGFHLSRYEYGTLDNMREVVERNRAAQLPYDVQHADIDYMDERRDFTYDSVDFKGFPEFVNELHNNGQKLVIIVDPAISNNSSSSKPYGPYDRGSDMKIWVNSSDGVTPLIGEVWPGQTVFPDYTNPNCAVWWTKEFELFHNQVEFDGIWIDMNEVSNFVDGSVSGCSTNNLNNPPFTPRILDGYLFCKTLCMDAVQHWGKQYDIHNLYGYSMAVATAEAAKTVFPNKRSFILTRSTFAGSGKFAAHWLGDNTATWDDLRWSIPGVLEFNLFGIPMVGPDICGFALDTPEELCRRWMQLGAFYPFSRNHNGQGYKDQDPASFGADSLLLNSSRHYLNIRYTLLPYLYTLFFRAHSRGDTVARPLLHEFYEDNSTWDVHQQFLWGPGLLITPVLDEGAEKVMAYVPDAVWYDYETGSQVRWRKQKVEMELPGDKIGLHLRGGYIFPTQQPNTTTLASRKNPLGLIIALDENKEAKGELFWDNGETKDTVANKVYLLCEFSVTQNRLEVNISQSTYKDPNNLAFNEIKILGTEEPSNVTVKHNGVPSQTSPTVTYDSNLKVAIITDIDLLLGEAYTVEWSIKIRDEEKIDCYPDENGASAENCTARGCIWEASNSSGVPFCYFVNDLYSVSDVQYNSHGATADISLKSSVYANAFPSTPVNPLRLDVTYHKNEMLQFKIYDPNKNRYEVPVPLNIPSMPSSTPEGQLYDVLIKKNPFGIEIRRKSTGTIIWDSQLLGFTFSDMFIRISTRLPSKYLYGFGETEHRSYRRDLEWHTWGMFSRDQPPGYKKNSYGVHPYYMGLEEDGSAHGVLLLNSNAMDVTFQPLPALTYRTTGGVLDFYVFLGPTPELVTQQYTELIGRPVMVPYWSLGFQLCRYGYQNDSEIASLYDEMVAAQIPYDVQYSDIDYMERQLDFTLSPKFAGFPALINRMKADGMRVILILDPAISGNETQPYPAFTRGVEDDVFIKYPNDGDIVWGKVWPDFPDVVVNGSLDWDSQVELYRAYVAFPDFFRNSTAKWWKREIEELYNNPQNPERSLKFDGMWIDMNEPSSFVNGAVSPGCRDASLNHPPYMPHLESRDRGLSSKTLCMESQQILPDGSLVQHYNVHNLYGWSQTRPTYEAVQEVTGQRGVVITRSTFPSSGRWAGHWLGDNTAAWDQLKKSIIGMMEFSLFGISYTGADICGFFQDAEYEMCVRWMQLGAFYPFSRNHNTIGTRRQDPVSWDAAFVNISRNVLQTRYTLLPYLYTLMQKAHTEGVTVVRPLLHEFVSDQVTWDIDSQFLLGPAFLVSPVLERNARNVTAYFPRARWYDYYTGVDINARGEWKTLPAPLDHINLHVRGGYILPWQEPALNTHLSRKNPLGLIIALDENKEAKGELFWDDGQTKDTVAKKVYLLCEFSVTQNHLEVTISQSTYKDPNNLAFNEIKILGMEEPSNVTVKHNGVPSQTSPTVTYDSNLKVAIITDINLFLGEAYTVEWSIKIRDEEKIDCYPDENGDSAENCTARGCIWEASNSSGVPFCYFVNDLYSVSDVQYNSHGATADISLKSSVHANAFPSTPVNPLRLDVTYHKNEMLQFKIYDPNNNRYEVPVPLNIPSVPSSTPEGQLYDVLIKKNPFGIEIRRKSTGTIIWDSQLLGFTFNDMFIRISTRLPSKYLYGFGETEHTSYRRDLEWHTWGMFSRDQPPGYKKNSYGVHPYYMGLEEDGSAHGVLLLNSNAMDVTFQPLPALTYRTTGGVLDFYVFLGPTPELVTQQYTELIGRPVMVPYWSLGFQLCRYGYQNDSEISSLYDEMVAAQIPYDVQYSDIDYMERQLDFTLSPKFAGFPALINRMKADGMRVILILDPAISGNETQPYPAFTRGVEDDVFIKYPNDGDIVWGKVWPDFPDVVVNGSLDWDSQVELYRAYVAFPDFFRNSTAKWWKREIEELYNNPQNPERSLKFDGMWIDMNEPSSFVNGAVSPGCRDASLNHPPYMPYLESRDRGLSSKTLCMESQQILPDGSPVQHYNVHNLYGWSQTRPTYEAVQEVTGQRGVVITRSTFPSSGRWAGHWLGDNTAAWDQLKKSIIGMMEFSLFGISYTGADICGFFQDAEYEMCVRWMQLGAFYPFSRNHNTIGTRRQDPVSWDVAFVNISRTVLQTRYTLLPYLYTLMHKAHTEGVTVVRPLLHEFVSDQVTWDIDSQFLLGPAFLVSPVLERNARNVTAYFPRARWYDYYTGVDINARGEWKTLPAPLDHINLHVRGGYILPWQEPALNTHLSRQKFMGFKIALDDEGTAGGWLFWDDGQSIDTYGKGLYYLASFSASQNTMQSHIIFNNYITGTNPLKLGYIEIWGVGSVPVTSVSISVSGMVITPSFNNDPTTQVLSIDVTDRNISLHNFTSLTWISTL
Sterol O-acyltransferase 2 (Homo sapiens), sequence (O75908 whole entry): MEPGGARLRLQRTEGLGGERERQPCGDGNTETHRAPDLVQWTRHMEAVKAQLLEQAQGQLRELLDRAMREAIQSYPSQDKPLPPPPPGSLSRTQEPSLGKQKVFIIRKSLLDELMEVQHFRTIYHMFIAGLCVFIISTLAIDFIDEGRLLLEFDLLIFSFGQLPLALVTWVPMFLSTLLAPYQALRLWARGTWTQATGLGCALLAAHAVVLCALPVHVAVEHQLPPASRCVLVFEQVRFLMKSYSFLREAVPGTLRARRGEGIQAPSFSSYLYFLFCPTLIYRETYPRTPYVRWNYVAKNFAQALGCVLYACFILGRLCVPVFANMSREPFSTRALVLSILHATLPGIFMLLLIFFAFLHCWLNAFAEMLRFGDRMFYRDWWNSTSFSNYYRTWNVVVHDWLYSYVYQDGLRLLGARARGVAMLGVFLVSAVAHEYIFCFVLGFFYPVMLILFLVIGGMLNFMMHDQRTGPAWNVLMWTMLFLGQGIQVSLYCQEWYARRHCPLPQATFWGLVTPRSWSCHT

## CC(C)=CCc1c(O)ccc2c1O[C@H]1c3ccc(O)c(CC=C(C)C)c3OC[C@@H]21 [ERYBRAEDIN A]
[1]
  IC50: 3.4 µg/mL (≈ 8.66 µM)
[2]
  IC50: 25 µg/mL (≈ 63.7 µM)
[3]
  IC50: 5.1 µg/mL (≈ 13 µM)
[4]
  IC50: 2.9 µg/mL (≈ 7.39 µM)
[5]
  IC50: 2.1 µg/mL (≈ 5.35 µM)
[6]
  MIC: 1.56 µg/mL (≈ 3.97 µM)
[7]
  MIC: 3.13 µg/mL (≈ 7.97 µM)
[8]
  MIC: 0.78 µg/mL (≈ 1.99 µM)

## CC(C)=CCc1c(O)ccc2c1O[C@H]1c3ccc(O)cc3OC[C@@H]21 [PHASEOLLIDIN]
[3]
  IC50: 7.7 µg/mL (≈ 23.7 µM)
[4]
  IC50: 14.3 µg/mL (≈ 44.1 µM)
[5]
  IC50: 5.05 µg/mL (≈ 15.6 µM)
[9]
  IC50: 9.09 µg/mL (≈ 28 µM)
[10]
  IC50: 1.66 µg/mL (≈ 5.12 µM)

## CC1(C)C=Cc2c(ccc3c2OC2c4ccc(O)cc4OCC32)O1 (centres undefined)
[11]
  pIC50: 5.22
[12]
  inhibition: 67.4%
[13]
  inhibition: 85.9%

## COc1c(CC=C(C)C)c(O)cc2c1[C@@H]1Oc3c(ccc(O)c3CC=C(C)C)[C@@H]1CO2
[14]
  MIC: 50 µg/mL (≈ 118 µM)

## COc1ccc2c(c1CC=C(C)C)O[C@H]1c3ccc(O)cc3OCC21 (some centres undefined)
[15]
  IC50: 8 µg/mL (≈ 23.6 µM)
[16]
  IC50: 16 µg/mL (≈ 47.3 µM)
[10]
  IC50: 1.83 µg/mL (≈ 5.41 µM)
[17]
  MIC: 3.8 µg/mL (≈ 11.2 µM)
[18]
  MIC: 1.9 µg/mL (≈ 5.61 µM)

## Oc1cc2c(cc1O)[C@@H]1Oc3cc4c(cc3[C@@H]1CO2)OCO4
[19]
  MIC: 32 µg/mL (≈ 107 µM)

## COc1ccc2c(c1CC=C(C)C)OC1c3ccc(O)cc3OCC21 (centres undefined)
[15]
  IC50: 4 µg/mL (≈ 11.8 µM)
[16]
  IC50: 4 µg/mL (≈ 11.8 µM)
[20]
  IC50: 12.5 µg/mL (≈ 37 µM)
[21]
  IC50: 7.51 µg/mL (≈ 22.2 µM)
[22]
  IC50: 5.37 µg/mL (≈ 15.9 µM)

## COc1ccc2c(c1CC=C(C)C)O[C@H]1c3ccc(O)c(CC=C(C)C)c3OC[C@@]21O
[23]
  MIC50: 6.25 µM (≈ 2.64 µg/mL)
